The assay has as its target T1, Enoyl-[acyl-carrier-protein] reductase [NADPH] FabI (Staphylococcus aureus, UniProt Q6GI75).
T1 sequence (Q6GI75 whole entry): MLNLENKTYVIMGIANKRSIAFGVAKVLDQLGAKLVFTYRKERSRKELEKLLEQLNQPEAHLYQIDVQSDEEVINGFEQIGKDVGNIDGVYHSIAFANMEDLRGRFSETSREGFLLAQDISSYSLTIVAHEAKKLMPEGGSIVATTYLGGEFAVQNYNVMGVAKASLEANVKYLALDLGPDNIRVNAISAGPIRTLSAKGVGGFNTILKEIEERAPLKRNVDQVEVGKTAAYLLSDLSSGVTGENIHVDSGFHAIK
Kind of assay: Tight-binding assay: Kinetics were performed on a Cary 100 spectrophotometer (Varian) at 20° C. Reaction velocities were measured by monitoring the oxidation of NAD(P)H to NAD(P)+ at 340 nm (Figure US10071965-20180911-P00001=6220 M−1 cm−1). For saFabI, the reaction mixture was identical to that described previously for progress curve experiments (Schiebel et al. (2012). Structure 20:802-13). For ecFabI, the final reaction mixture contained ecFabI (75 nM), trans-2-butenoyl-CoA (800 μM; Sigma and Advent Bio), NADH (300 μM; Sigma), NAD+ (400 μM; Sigma), and inhibitor (2 v/v % DMSO) in 50 mM potassium phosphate, pH 7.5, 150 mM NaCl, 8 v/v % glycerol. For InhA, the final reaction mixture contained InhA (100 nM), trans-2-octenoyl-CoA (200 μM), NADH (250 μM), NAD+ (200 μM), and inhibitor (2 v/v % DMSO) in 30 mM PIPES, pH 6.8, 150 mM NaCl, 1 mM EDTA, 8 v/v % glycerol. The resulting curves were fit to the Morrison and Walsh integrated rate equation (Equation 1) (Morrison et al.

Among the data in ChEMBL document CHEMBL5725612, “Pyridone FabI inhibitors and uses thereof” (2018) are Ki values, retold here.

Structures are written as SMILES.

`Oc1ccccc1Oc1ccccc1`: the inhibition constant (Ki) was 24.5 µM.
